According to patent US8440708B2, “Triazole-substituted arylamides as P2X3 and P2X2/3 antagonists” (Roche Palo Alto LLC, priority 2007, dated 2013):

Legend:
human P2X2/3 receptor = target: T1, human P2X2/3 receptor (Homo sapiens, UniProt P56373+Q9UBL9); experiment: P2X3/P2X2/3 FLIPR (Fluorometric Imaging Plate Reader) Assay, P2X2/3; type: cell-based; conditions: CHO-K1 cells transfected with human P2X2/3; agonist α,β-meATP 5 μM; Table 1; read-out: P2X2/3 pKi (converted)
T1 construct: expressed in transfected cells; host or cells: CHO-K1
T1 sequence (Q9UBL9 1-471): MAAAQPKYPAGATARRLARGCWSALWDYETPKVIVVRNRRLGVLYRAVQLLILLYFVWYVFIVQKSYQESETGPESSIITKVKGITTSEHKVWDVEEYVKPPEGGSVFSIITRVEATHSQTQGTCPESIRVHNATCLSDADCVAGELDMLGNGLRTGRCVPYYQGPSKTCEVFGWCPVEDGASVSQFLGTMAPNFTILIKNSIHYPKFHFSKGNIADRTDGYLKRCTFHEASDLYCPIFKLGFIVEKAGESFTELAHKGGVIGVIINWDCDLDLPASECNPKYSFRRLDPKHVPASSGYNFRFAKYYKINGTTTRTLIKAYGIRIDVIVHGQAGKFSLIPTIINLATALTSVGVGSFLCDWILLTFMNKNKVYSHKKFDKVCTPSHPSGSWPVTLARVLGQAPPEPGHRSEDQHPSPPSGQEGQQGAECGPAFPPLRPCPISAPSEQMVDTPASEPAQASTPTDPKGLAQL
T1 sequence (P56373 1-397): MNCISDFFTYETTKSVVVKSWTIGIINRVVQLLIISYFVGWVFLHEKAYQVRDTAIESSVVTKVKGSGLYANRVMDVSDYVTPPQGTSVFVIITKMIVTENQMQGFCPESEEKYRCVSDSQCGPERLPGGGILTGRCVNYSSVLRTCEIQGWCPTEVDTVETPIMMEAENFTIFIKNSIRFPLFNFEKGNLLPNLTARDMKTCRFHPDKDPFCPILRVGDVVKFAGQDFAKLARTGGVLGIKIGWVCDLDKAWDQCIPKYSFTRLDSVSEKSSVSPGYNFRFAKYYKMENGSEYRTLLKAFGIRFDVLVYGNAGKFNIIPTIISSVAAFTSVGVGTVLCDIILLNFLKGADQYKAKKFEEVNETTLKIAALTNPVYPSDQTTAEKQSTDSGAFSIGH
Method in brief: (§1)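 CHO-K1 cells expressing rat P2X3 or human P2X2/3 were loaded with Fluo-3 AM (2 μM, 1 h, 37 °C) and preincubated with compound for 20 min at room temperature. Calcium influx was evoked by α,β-meATP (1 μM for P2X3, 5 μM for P2X2/3) and peak fluorescence was fitted by nonlinear regression to inhibition curves.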

rat P2X3 receptor = target: T2, rat P2X3 receptor (Rattus norvegicus, UniProt P49654); experiment: P2X3/P2X2/3 FLIPR (Fluorometric Imaging Plate Reader) Assay, P2X3; type: cell-based; conditions: CHO-K1 cells transfected with rat P2X3; agonist α,β-meATP 1 μM; Table 1; read-out: P2X3 pKi (converted)
T2 construct: expressed in transfected cells; host or cells: CHO-K1
T2 sequence (P49654 1-397): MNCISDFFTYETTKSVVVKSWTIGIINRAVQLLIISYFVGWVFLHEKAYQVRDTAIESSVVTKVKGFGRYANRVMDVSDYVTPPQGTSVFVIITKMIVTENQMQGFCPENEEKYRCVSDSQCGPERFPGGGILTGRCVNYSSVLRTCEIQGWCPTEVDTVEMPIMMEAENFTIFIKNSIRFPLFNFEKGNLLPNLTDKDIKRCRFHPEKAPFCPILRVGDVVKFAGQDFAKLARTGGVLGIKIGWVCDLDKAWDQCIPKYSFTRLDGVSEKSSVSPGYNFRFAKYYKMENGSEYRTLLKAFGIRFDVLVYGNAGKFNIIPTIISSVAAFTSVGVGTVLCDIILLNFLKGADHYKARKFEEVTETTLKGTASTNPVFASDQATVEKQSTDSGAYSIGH
Method in brief: as §1

Ki (human P2X2/3 receptor) [nM] | Ki (rat P2X3 receptor) [nM] | SMILES
4900 | 18.2 | CCCc1ncnn1-c1cc(C(=O)N[C@@H](C)CO)cc(-c2ccc(Cl)cn2)c1 [Compound 111, 3-(5-Chloro-pyridin-2-yl)-N-((S)-2-hydroxy-1-methyl-ethyl)-5-(5-propyl-[1,2,4]triazol-1-yl)-benzamide]
1860 | 10.2 | CCCc1ncnn1-c1cc(C(=O)NC2CC2)cc(-c2ccc(Cl)cn2)c1 [Compound 112, 3-(5-Chloro-pyridin-2-yl)-N-cyclopropyl-5-(5-propyl-[1,2,4]triazol-1-yl)-benzamide]
1580 | 4.57 | CCCc1ncnn1-c1cc(C(=O)NC2CC2)cc(-c2ccc(C)cn2)c1 [Compound 113, N-Cyclopropyl-3-(5-methyl-pyridin-2-yl)-5-(5-propyl-[1,2,4]triazol-1-yl)-benzamide]
2880 | 4.79 | CCCc1ncnn1-c1cc(C(=O)N[C@@H](C)CO)cc(-c2ccc(C)cn2)c1 [Compound 114, N-((S)-2-Hydroxy-1-methyl-ethyl)-3-(5-methyl-pyridin-2-yl)-5-(5-propyl-[1,2,4]triazol-1-yl)-benzamide]
79.4 | 3.31 | CCCc1ncnn1-c1cc(C(=O)NC(C)c2cnccn2)cc(-c2ccc(C)cn2)c1 (stereo not drawn) [Compound 115, 3-(5-Methyl-pyridin-2-yl)-5-(5-propyl-[1,2,4]triazol-1-yl)-N-(1-pyrazin-2-yl-ethyl)-benzamide]
85.1 | 2.51 | CCCc1ncnn1-c1cc(C(=O)NCc2cnc(C)cn2)cc(-c2ccc(C)cn2)c1 [Compound 116, N-(5-Methyl-pyrazin-2-ylmethyl)-3-(5-methyl-pyridin-2-yl)-5-(5-propyl-[1,2,4]triazol-1-yl)-benzamide]
398 | 11.5 | Cc1ccc(-c2cc(C(=O)NCc3cnc(C)cn3)cc(-c3ncn(C(C)C)n3)c2)cc1 [Compound 117, 5-(1-Isopropyl-1H-[1,2,4]triazol-3-yl)-4′-methyl-biphenyl-3-carboxylic acid (5-methyl-pyrazin-2-ylmethyl)-amide]
35.5 | 4.27 | Cc1ccc(-c2cc(C(=O)NC(C)c3cnccn3)cc(-n3ncnc3CC(C)C)c2)nc1 (stereo not drawn) [Compound 118, 3-(5-Isobutyl-[1,2,4]triazol-1-yl)-5-(5-methyl-pyridin-2-yl)-N-(1-pyrazin-2-yl-ethyl)-benzamide]
23.4 | 3.55 | Cc1ccc(-c2cc(C(=O)NCc3cnc(C)cn3)cc(-n3ncnc3CC(C)C)c2)nc1 [Compound 119, 3-(5-Isobutyl-[1,2,4]triazol-1-yl)-N-(5-methyl-pyrazin-2-ylmethyl)-5-(5-methyl-pyridin-2-yl)-benzamide]
132 | 7.59 | CC(C)c1ncnn1-c1cc(C(=O)NC(C)c2cnccn2)cc(-c2ccc(Cl)cn2)c1 (stereo not drawn) [Compound 120, 3-(5-Chloro-pyridin-2-yl)-5-(5-isopropyl-[1,2,4]triazol-1-yl)-N-(1-pyrazin-2-yl-ethyl)-benzamide]
107 | 5.89 | Cc1cnc(CNC(=O)c2cc(-c3ccc(Cl)cn3)cc(-n3ncnc3C(C)C)c2)cn1 [Compound 121, 3-(5-Chloro-pyridin-2-yl)-5-(5-isopropyl-[1,2,4]triazol-1-yl)-N-(5-methyl-pyrazin-2-ylmethyl)-benzamide]
1290 | 19.1 | CC(C)c1ncnn1-c1cc(C(=O)N[C@@H](C)CO)cc(-c2ccc(Cl)cn2)c1 [Compound 122, 3-(5-Chloro-pyridin-2-yl)-N-((S)-2-hydroxy-1-methyl-ethyl)-5-(5-isopropyl-[1,2,4]triazol-1-yl)-benzamide]
871 | 11 | CC(C)c1ncnn1-c1cc(C(=O)NC2CC2)cc(-c2ccc(Cl)cn2)c1 [Compound 123, 3-(5-Chloro-pyridin-2-yl)-N-cyclopropyl-5-(5-isopropyl-[1,2,4]triazol-1-yl)-benzamide]
1150 | 13.5 | CCc1ncnn1-c1cc(C(=O)NCc2cnc(C)cn2)cc(-c2ccc(Cl)cn2)c1 [Compound 124, 3-(5-Chloro-pyridin-2-yl)-5-(5-ethyl-[1,2,4]triazol-1-yl)-N-(5-methyl-pyrazin-2-ylmethyl)-benzamide]
245 | 19.1 | Cc1ccc(-c2cc(C(=O)NCc3cnc(C)cn3)cc(-n3ncnc3C3CC3)c2)nc1 [Compound 125, 3-(5-Cyclopropyl-[1,2,4]triazol-1-yl)-N-(5-methyl-pyrazin-2-ylmethyl)-5-(5-methyl-pyridin-2-yl)-benzamide]
3720 | 29.5 | CCc1ncnn1-c1cc(C(=O)NC2CC2)cc(-c2ccc(C)cn2)c1 [Compound 126, N-Cyclopropyl-3-(5-ethyl-[1,2,4]triazol-1-yl)-5-(5-methyl-pyridin-2-yl)-benzamide]
6920 | 24.5 | CCc1ncnn1-c1cc(C(=O)N[C@@H](C)CO)cc(-c2ccc(C)cn2)c1 [Compound 127, 3-(5-Ethyl-[1,2,4]triazol-1-yl)-N-((S)-2-hydroxy-1-methyl-ethyl)-5-(5-methyl-pyridin-2-yl)-benzamide]
257 | 10.2 | CCc1ncnn1-c1cc(C(=O)NC(C)c2cnccn2)cc(-c2ccc(C)cn2)c1 (stereo not drawn) [Compound 128, 3-(5-Ethyl-[1,2,4]triazol-1-yl)-5-(5-methyl-pyridin-2-yl)-N-(1-pyrazin-2-yl-ethyl)-benzamide]
79.4 | 4.9 | CCc1ncnn1-c1cc(C(=O)NCc2cnc(C)cn2)cc(-c2ccc(C)cn2)c1 [Compound 129, 3-(5-Ethyl-[1,2,4]triazol-1-yl)-N-(5-methyl-pyrazin-2-ylmethyl)-5-(5-methyl-pyridin-2-yl)-benzamide]
182 | 4.27 | Cc1ccc(-c2cc(C(=O)NC3CC3)cc(-n3ncnc3CC(C)C)c2)nc1 [Compound 130, N-Cyclopropyl-3-(5-isobutyl-[1,2,4]triazol-1-yl)-5-(5-methyl-pyridin-2-yl)-benzamide]
158 | 3.72 | Cc1ccc(-c2cc(C(=O)N[C@@H](C)CO)cc(-n3ncnc3CC(C)C)c2)nc1 [Compound 131, N-((S)-2-Hydroxy-1-methyl-ethyl)-3-(5-isobutyl-[1,2,4]triazol-1-yl)-5-(5-methyl-pyridin-2-yl)-benzamide]
38.9 | 3.31 | Cc1ccc(-c2cc(C(=O)NCc3cnc(C)cn3)cc(-n3ncnc3C(C)C)c2)nc1 [Compound 132, 3-(5-Isopropyl-[1,2,4]triazol-1-yl)-N-(5-methyl-pyrazin-2-ylmethyl)-5-(5-methyl-pyridin-2-yl)-benzamide]
295 | 11 | COC(C)c1ncnn1-c1cc(C(=O)NCc2cnc(C)cn2)cc(-c2ccc(C)cn2)c1 (stereo not drawn) [Compound 133, 3-[5-(1-Methoxy-ethyl)-[1,2,4]triazol-1-yl]-N-(5-methyl-pyrazin-2-ylmethyl)-5-(5-methyl-pyridin-2-yl)-benzamide]
38 | 6.61 | COC(C)c1ncnn1-c1cc(C(=O)NCc2cnc(C)cn2)cc(-c2ccc(C)cc2)c1 (stereo not drawn) [Compound 134, 5-[5-(1-Methoxy-ethyl)-[1,2,4]triazol-1-yl]-4′-methyl-biphenyl-3-carboxylic acid (5-methyl-pyrazin-2-ylmethyl)-amide]
